From ChEMBL document CHEMBL1135053, “Affinity-driven selection of tripeptide inhibitors of ribonucleotide reductase” (Bioorg Med Chem Lett, 2002)
Residues, ends and D or L forms follow the SMILES beside them. *: point of attachment. Fmoc = O=C(OCC1c2ccccc2-c2ccccc21)*

Test: Mouse ribonucleotide reductase (mRR) activity was determined by relative dissociation constant which was assayed for binding activity to mR1

| Compound | Relative Kd |
| --- | --- |
| O=C(N[C@@H](Cc1c[nH]c2ccccc12)C(=O)O)OCC1c2ccccc2-c2ccccc21 | 18 |
| O=C(N[C@H](C(=O)O)c1ccccc1)OCC1c2ccccc2-c2ccccc21 | 31 |
| O=C(N[C@@H](Cc1c[nH]c2ccccc12)C(=O)N[C@@H](Cc1ccccc1)C(=O)N[C@@H](Cc1ccccc1)C(=O)O)OCC1c2ccccc2-c2ccccc21 (Fmoc-Trp-Phe-Phe-OH) | 1 |
| CC(C)C[C@H](NC(=O)OCC1c2ccccc2-c2ccccc21)C(=O)O | 38 |
| O=C(N[C@@H](Cc1ccccc1)C(=O)O)OCC1c2ccccc2-c2ccccc21 | 22 |
| CC(=O)N[C@@H](Cc1ccccc1)C(=O)N[C@H](C(=O)N[C@@H](CC(C)C)C(=O)N[C@@H](CC(=O)O)C(=O)N[C@@H](C)C(=O)N[C@@H](CC(=O)O)C(=O)N[C@@H](Cc1ccccc1)C(=O)O)[C@@H](C)O (Ac-FTLDADF-OH) | 1 |
